From publication PMC5740381 (Antimicrobial Agents and Chemotherapy, 2017)
Like-named read-outs stand apart in the source and are kept apart here.

Columns and labels:
[1] = test system: HCV subgenomic stable replicon GT2b; test: Stable HCV replicon luciferase assay in Huh-7 cells; type: cell-based; settings: Hepatitis C virus, 0% human plasma, read-out: Mean EC50 ± SD
Source text: (§1) Five of these nine cell lines have been described previously, including those transfected with genotypes 1a H77, 1b Con1, 3a, 4a, and 6a ([28]). […] The genotype 2b and 6e NS3 sequences were each synthetically constructed based on a consensus sequence derived from the alignment of 15 genotype 2b and 4 genotype 6e sequences, respectively. All replicon constructs were bicistronic subgenomic replicons similar to those described by Bartenschlager and coworkers, and the replicon cell lines were generated by introducing these constructs into cells of an Huh-7 human hepatoma-derived cell line ([50]). The inhibitory effect of the PIs on HCV replication in replicon cells was determined in Dulbecco's modified Eagle medium containing 5% fetal bovine serum with or without 40% human plasma (Bioreclamation, Westbury, NY). The EC50s were determined using nonlinear regression curve fitting as described previously ([33]).

[2] = test system: HCV subgenomic stable replicon GT4a; test: as above; type: cell-based, Hepatitis C virus; settings: Hepatitis C virus, Huh-7, 0% human plasma, read-out: Mean EC50 ± SD
Source text: (§2) . Five of these nine cell lines have been described previously, including those transfected with genotypes 1a H77, 1b Con1, 3a, 4a, and 6a ([28]). The other four cell lines were established by transfecting cells with a nonchimeric genotype 2a JFH-1 replicon (GenBank accession number AB047639), two genotype 2a JFH-1 chimeric replicons containing either a genotype 2b NS3 protease domain (N-terminal 251 amino acids) or a sequence encoding full-length NS3 through the first 39 amino acids of NS5B from genotype 5a (strain SA13), and one chimeric replicon with a genotype 1b Con1 backbone containing full-length NS3 and NS4A sequences from genotype 6e. The genotype 2b and 6e NS3 sequences were each synthetically constructed based on a consensus sequence derived from the alignment of 15 genotype 2b and 4 genotype 6e sequences, respectively. All replicon constructs were bicistronic subgenomic replicons similar to those described by Bartenschlager and coworkers, and the replicon cell lines were generated by introducing these constructs into cells of an Huh-7 human hepatoma-derived cell line ([50]). The inhibitory effect of the PIs on HCV replication in replicon cells was determined in Dulbecco's modified Eagle medium containing 5% fetal bovine serum with or without 40% human plasma (Bioreclamation, Westbury, NY). The EC50s were determined using nonlinear regression curve fitting as described previously ([33]).

[3] = test system: HCV subgenomic stable replicon GT6a; test: as above; type: cell-based, Hepatitis C virus; settings: Hepatitis C virus, Huh-7, 0% human plasma, read-out: Mean EC50 ± SD
Source text: as §2

[4] = test system: HCV subgenomic stable replicon GT3a; test: microbe, parasite or virus in culture; type: cell-based, Hepatitis C virus; settings: Hepatitis C virus, Huh-7, 0% human plasma, read-out: Mean EC50 ± SD
Source text: as §1

[5] = test system: HCV subgenomic stable replicon GT6e; test: microbe, parasite or virus in culture; type: cell-based, Hepatitis C virus; settings: Hepatitis C virus, Huh-7, 0% human plasma, read-out: Mean EC50 ± SD
Source text: as §1

HCV genotype 1a replicon = test: Transient replicon assay with engineered substitutions; type: cell-based, Hepatitis C virus
Experimental: (§3) Mutagenesis was performed using a Change-IT multiple-mutation site-directed mutagenesis kit (USB, Cleveland, OH) or by cloning a synthesized DNA fragment encoding the amino acid substitution(s). The genotype 1a and 1b replicon shuttle vectors used for the introduction of the substitutions of interest in the NS3, NS5A, or NS5B gene for transient-transfection assays have been described previously ([28], [33]). The replicon shuttle vectors used for the introduction of substitutions in NS3 genes from other genotypes were similar to the stable replicon cell line constructs described above, except for the absence of the neo gene. After mutagenesis, the plasmids were linearized and RNA was transcribed and then used to transfect Huh-7 cells. Inhibition of HCV replication by the HCV inhibitors was measured by luciferase assay, as described above. Replication efficiency was calculated as a percentage of wild-type replication, as described previously ([28]).

HCV genotype 1b replicon = test: as above; type: cell-based, Hepatitis C virus
Experimental: as §3

HCV genotype 2a replicon = test: as above; type: cell-based, Hepatitis C virus
Experimental: as §3

HCV genotype 2b replicon = test: as above; type: cell-based, Hepatitis C virus; settings: for EC50: Hepatitis C virus
Experimental: as §3

HCV genotype 3a replicon = test: as above; type: cell-based, Hepatitis C virus; settings: for EC50: Hepatitis C virus
Experimental: as §3

HCV genotype 4a replicon = test: as above; type: cell-based, Hepatitis C virus; settings: for EC50: Hepatitis C virus
Experimental: as §3

HCV genotype 4d replicon = test: as above; type: cell-based, Hepatitis C virus; settings: for EC50: Hepatitis C virus, 96 h
Experimental: as §3

HCV genotype 6a replicon = test: as above; type: cell-based, Hepatitis C virus; settings: for EC50: Hepatitis C virus
Experimental: as §3

## Cc1cnc(C(=O)N[C@H]2CCCCC/C=C\[C@@H]3C[C@@]3(C(=O)NS(=O)(=O)C3CC3)NC(=O)[C@@H]3C[C@@H](Oc4nc5ccccc5c5ccccc45)CN3C2=O)cn1 [Paritaprevir]
[1]
  EC50: 107 ± 17 nM
[2]
  EC50: 0.09 ± 0.03 nM
[3]
  EC50: 0.69 ± 0.09 nM
[4]
  EC50: 19 ± 5.2 nM
[5]
  EC50: 0.44 ± 0.17 nM
HCV genotype 1a replicon; 1a NS3 A156T vs wild-type replicon
  Fold change: 17 fold
HCV genotype 1a replicon; 1a NS3 D168A vs wild-type replicon
  Fold change: 50 fold
HCV genotype 1a replicon; 1a NS3 D168E vs wild-type replicon
  Fold change: 14 fold
HCV genotype 1a replicon; 1a NS3 D168V vs wild-type replicon
  Fold change: 96 fold
HCV genotype 1a replicon; 1a NS3 F43L vs wild-type replicon
  Fold change: 20 fold
HCV genotype 1a replicon; 1a NS3 Q80K vs wild-type replicon
  Fold change: 2.8 fold
HCV genotype 1a replicon; 1a NS3 R155K vs wild-type replicon
  Fold change: 37 fold
HCV genotype 1a replicon; 1a NS3 T54S vs wild-type replicon
  Fold change: 0.4 fold
HCV genotype 1a replicon; 1a NS3 V36M vs wild-type replicon
  Fold change: 2.1 fold
HCV genotype 1a replicon; 1a NS3 V55I vs wild-type replicon
  Fold change: 1.0 fold
HCV genotype 1a replicon; 1a NS3 Y56H vs wild-type replicon
  Fold change: 2.9 fold
HCV genotype 1b replicon; 1b NS3 A156T vs wild-type replicon
  Fold change: 7.4 fold
HCV genotype 1b replicon; 1b NS3 A156V vs wild-type replicon
  Fold change: 21 fold
HCV genotype 1b replicon; 1b NS3 D168A vs wild-type replicon
  Fold change: 27 fold
HCV genotype 1b replicon; 1b NS3 D168E vs wild-type replicon
  Fold change: 4.4 fold
HCV genotype 1b replicon; 1b NS3 D168V vs wild-type replicon
  Fold change: 159 fold
HCV genotype 1b replicon; 1b NS3 R155K vs wild-type replicon
  Fold change: 40 fold
HCV genotype 1b replicon; 1b NS3 T54A vs wild-type replicon
  Fold change: 0.8 fold
HCV genotype 1b replicon; 1b NS3 V55A vs wild-type replicon
  Fold change: 0.6 fold
HCV genotype 1b replicon; 1b NS3 V170A vs wild-type replicon
  Fold change: 0.8 fold
HCV genotype 2a replicon; 2a NS3 A156T vs wild-type replicon
  Fold change: 1.7 fold
HCV genotype 2a replicon; 2a NS3 A156V vs wild-type replicon
  Fold change: 2.2 fold
HCV genotype 2a replicon; 2a NS3 D168A vs wild-type replicon
  Fold change: 18 fold
HCV genotype 2a replicon; 2a NS3 D168E vs wild-type replicon
  Fold change: 5.3 fold
HCV genotype 2a replicon; 2a NS3 D168V vs wild-type replicon
  Fold change: 13 fold
HCV genotype 2b replicon; 2b NS3 A156T vs wild-type replicon
  Fold change: 3.0 fold
HCV genotype 2b replicon; 2b NS3 A156V vs wild-type replicon
  Fold change: 5.0 fold
HCV genotype 2b replicon; 2b NS3 D168A vs wild-type replicon
  Fold change: 11 fold
HCV genotype 2b replicon; 2b NS3 D168E vs wild-type replicon
  Fold change: 2.2 fold
HCV genotype 2b replicon; 2b NS3 D168V vs wild-type replicon
  Fold change: 9.4 fold
HCV genotype 2b replicon; read-out: Mean EC50 ± SD, 2b NS3 A156T
  EC50: 338 ± 86 nM
HCV genotype 2b replicon; read-out: Mean EC50 ± SD, 2b NS3 A156V
  EC50: 573 ± 204 nM
HCV genotype 2b replicon; read-out: Mean EC50 ± SD, 2b NS3 D168A
  EC50: 1310 nM
HCV genotype 2b replicon; read-out: Mean EC50 ± SD, 2b NS3 D168E
  EC50: 256 ± 58 nM
HCV genotype 2b replicon; read-out: Mean EC50 ± SD, 2b NS3 D168V
  EC50: 1070 nM
HCV genotype 2b replicon; read-out: Mean EC50 ± SD, 2b wild type, transient transfection
  EC50: 114 ± 24 nM
HCV genotype 3a replicon; 3a NS3 A156G vs wild-type replicon
  Fold change: 57 fold
HCV genotype 3a replicon; 3a NS3 Q168R vs wild-type replicon
  Fold change: 29 fold
HCV genotype 3a replicon; 3a NS3 R155K vs wild-type replicon
  Fold change: 5.2 fold
HCV genotype 3a replicon; read-out: Mean EC50 ± SD, 3a NS3 A156G
  EC50: 1770 nM
HCV genotype 3a replicon; read-out: Mean EC50 ± SD, 3a NS3 Q168R
  EC50: 912 ± 221 nM
HCV genotype 3a replicon; read-out: Mean EC50 ± SD, 3a NS3 R155K
  EC50: 161 ± 20 nM
HCV genotype 3a replicon; read-out: Mean EC50 ± SD, 3a wild type, transient transfection
  EC50: 31 ± 7 nM
HCV genotype 4a replicon; 4a NS3 A156T vs wild-type replicon
  Fold change: 40 fold
HCV genotype 4a replicon; 4a NS3 A156V vs wild-type replicon
  Fold change: 155 fold
HCV genotype 4a replicon; 4a NS3 D168H vs wild-type replicon
  Fold change: 252 fold
HCV genotype 4a replicon; 4a NS3 D168V vs wild-type replicon
  Fold change: 323 fold
HCV genotype 4a replicon; 4a NS3 R155C vs wild-type replicon
  Fold change: 59 fold
HCV genotype 4a replicon; read-out: Mean EC50 ± SD, 4a NS3 A156T
  EC50: 1.9 ± 0.25 nM
HCV genotype 4a replicon; read-out: Mean EC50 ± SD, 4a NS3 A156V
  EC50: 7.4 ± 1.6 nM
HCV genotype 4a replicon; read-out: Mean EC50 ± SD, 4a NS3 D168H
  EC50: 12 ± 3 nM
HCV genotype 4a replicon; read-out: Mean EC50 ± SD, 4a NS3 D168V
  EC50: 16 ± 1.9 nM
HCV genotype 4a replicon; read-out: Mean EC50 ± SD, 4a NS3 R155C
  EC50: 2.8 ± 0.25 nM
HCV genotype 4a replicon; read-out: Mean EC50 ± SD, 4a wild type, transient transfection
  EC50: 0.048 ± 0.01 nM
HCV genotype 4d replicon; 4d NS3 D168V vs wild-type replicon
  Fold change: 312 fold
HCV genotype 4d replicon; read-out: Mean EC50 ± SD, 4d NS3 D168V
  EC50: 4.7 ± 0.91 nM
HCV genotype 4d replicon; read-out: Mean EC50 ± SD, 4d wild type, transient transfection
  EC50: 0.015 ± 0.001 nM
HCV genotype 6a replicon; 6a NS3 D168A vs wild-type replicon
  Fold change: 1,347 fold
HCV genotype 6a replicon; 6a NS3 D168H vs wild-type replicon
  Fold change: 2,490 fold
HCV genotype 6a replicon; 6a NS3 D168V vs wild-type replicon
  Fold change: 3,336 fold
HCV genotype 6a replicon; read-out: Mean EC50 ± SD, 6a NS3 D168A
  EC50: 162 ± 80 nM
HCV genotype 6a replicon; read-out: Mean EC50 ± SD, 6a NS3 D168H
  EC50: 299 ± 87 nM
HCV genotype 6a replicon; read-out: Mean EC50 ± SD, 6a NS3 D168V
  EC50: 400 ± 139 nM
HCV genotype 6a replicon; read-out: Mean EC50 ± SD, 6a wild type, transient transfection
  EC50: 0.12 ± 0.04 nM
